Results published in publication PMC8781192, “An In Silico and an In Vitro Inhibition Analysis of Glycogen Phosphorylase by Flavonoids, Styrylchromones, and Pyrazoles” (Nutrients, 2022).
Like-named read-outs stand apart in the source and are kept apart here.

Columns and labels:
rabbit mGPa [1] = target: T1, rabbit mGPa (Oryctolagus cuniculus, UniProt P00489); assay: In vitro glycogen phosphorylase inhibition assay (direction of glycogen synthesis, colorimetric phosphate); format: biochemical; details: for inhibition at 50 µM: at 50 μM (highest concentration tested)
T1 construct: purchased Creative Enzymes
T1 sequence (P00489 2-843 limits assumed): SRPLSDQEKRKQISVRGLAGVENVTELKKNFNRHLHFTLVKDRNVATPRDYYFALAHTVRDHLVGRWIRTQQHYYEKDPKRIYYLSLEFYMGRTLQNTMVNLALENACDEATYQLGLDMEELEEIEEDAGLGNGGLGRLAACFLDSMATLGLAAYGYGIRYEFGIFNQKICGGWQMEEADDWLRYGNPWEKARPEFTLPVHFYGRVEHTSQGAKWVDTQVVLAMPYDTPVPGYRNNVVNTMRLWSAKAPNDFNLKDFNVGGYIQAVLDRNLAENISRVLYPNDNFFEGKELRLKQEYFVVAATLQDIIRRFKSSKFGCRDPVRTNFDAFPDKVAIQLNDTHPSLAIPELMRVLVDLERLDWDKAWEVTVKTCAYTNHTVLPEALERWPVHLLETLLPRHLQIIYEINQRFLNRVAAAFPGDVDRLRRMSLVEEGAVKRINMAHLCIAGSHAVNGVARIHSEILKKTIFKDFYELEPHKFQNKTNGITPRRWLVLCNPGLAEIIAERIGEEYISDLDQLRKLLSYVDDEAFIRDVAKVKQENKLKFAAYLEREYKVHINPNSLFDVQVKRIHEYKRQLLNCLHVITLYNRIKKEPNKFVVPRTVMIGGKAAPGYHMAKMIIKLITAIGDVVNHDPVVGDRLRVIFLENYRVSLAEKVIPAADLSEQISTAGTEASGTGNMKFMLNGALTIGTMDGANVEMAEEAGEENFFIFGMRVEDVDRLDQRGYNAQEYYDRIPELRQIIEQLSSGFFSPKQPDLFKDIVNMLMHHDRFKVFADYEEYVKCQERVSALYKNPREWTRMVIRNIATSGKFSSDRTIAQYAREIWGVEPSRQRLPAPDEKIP
Method: The GP activity was measured using a previously optimized and validated method. In each assay, GP activity was measured by the direction of glycogen synthesis, which involved monitoring the colorimetric determination of inorganic phosphate deriving from glucose 1-phosphate. […] The enzymatic reaction was then started with the addition of a 50 mM HEPES buffer solution, with a pH of 7.2, containing 100 mM KCl, 2.5 mM MgCl2, 0.25 mM glucose 1-phosphate, and 0.25 mg/mL glycogen incubated for 30 min at 37 °C. After this incubation time, the reagent for colorimetric phosphate quantitation, BIOMOL® Green, was added to the reaction mixture. The reaction was monitored in a microplate reader (Synergy HT, BioTek Instruments, Winooski, VT, USA) at 620 nm.

rabbit mGPa [2] = target: T1, rabbit mGPa; assay: In vitro effect of glucose on inhibitor potency (GPa inhibition with 0, 5, 10 mM glucose); format: biochemical; details: for IC50: mean ± SEM; for inhibition at 40 µM: at 40 μM (highest concentration tested), read-out: GPa inhibitory activity (%)
Method: The method was performed as described in Section 2.2, with slight modifications. […] The enzymatic reaction was then started with the addition of a 50 mM HEPES buffer solution with a pH of 7.2 containing 100 mM KCl, 2.5 mM MgCl2, 0.25 mM glucose 1-phosphate, and 0.25 mg/mL glycogen. This buffer was used without glucose, or it was enriched with 5 and 10 mM of glucose and was incubated for 30 min at 37 °C in the reaction mixture. After this incubation time, BIOMOL® Green was added, and the reaction was monitored in a microplate reader (Synergy HT, BioTek Instruments, Winooski, VT, USA) at 620 nm.

rabbit mGPa [3] = target: T1, rabbit mGPa; set-up: method as in PMID 16317787; details: direction of glycogen breakdown; cited from earlier work
GPb = system: GPb; set-up: method as in PMID 16317787; details: direction of glycogen breakdown; cited from earlier work
[4] = no glucose, mean ± SEM, read-out: GPa IC50 value
[5] = mean ± SEM, read-out: GPa inhibitory activity (%)
[6] = Table S2 summary of activities, read-out: IC50
[7] = 0 mM of glucose, read-out: GPa IC50 value
[8] = 5 mM of glucose, read-out: GPa IC50 value
[9] = 10 mM of glucose, read-out: GPa IC50 value

Row | SMILES | inhibition at 50 µM (rabbit mGPa [1]; [5]) | further results
1 | CN(C)C(=O)[C@H](O)[C@H](Cc1ccccc1)NC(=O)c1cc2cc(Cl)ccc2[nH]1 [CP-91149, 5-chloro-N-[(1S,2R)-3-(dimethylamino)-2-hydroxy-3-oxo-1-(phenylmethyl)propyl]-1H-indole-2-carboxamide, reference compound] |  | IC50 (rabbit mGPa [1]; [4]): 0.58 ± 0.09 µM; IC50 (rabbit mGPa [2]; GPa IC50 value, 0 mM of glucose): 0.58 ± 0.09 µM; IC50 (rabbit mGPa [2]; GPa IC50 value, 5 mM of glucose): 0.39 ± 0.05 µM; IC50 (rabbit mGPa [2]; GPa IC50 value, 10 mM of glucose): 0.22 ± 0.04 µM
2 | Oc1ccccc1-c1n[nH]cc1/C=C/c1ccccc1 [Compound 1] | < 30% | 
3 | Oc1ccccc1-c1n[nH]cc1/C=C/c1ccc(Cl)cc1 [Compound 2] | < 30% | 
4 | COc1ccc(/C=C/c2c[nH]nc2-c2ccccc2O)cc1 [Compound 3] | < 30% | 
5 | Oc1ccccc1-c1n[nH]cc1/C=C/c1ccccc1C(F)(F)F [Compound 4] | < 30% | 
6 | CCCCCCCCCCn1cc(/C=C/c2ccccc2)c(-c2ccccc2O)n1 [Compound 5] | < 30% | 
7 | CCCCCCCCCCCCn1cc(/C=C/c2ccccc2)c(-c2ccccc2O)n1 [Compound 6] | < 30% | 
8 | CCCCCCCCCCCCn1cc(/C=C/c2ccc(Cl)cc2)c(-c2ccccc2O)n1 [Compound 7] | < 30% | 
9 | O=[N+]([O-])c1cccc(/C=C\c2c[nH]nc2-c2ccccc2O)c1 [Compound 8] | < 30% | 
10 | COc1ccc(-c2n[nH]cc2/C=C\c2ccc([N+](=O)[O-])cc2)c(O)c1 [Compound 9] | < 30% | 
11 | Oc1ccccc1-c1cc(/C=C/c2ccccc2)[nH]n1 [Compound 10] | < 30% | 
12 | Oc1ccccc1-c1cc(/C=C/c2ccc(Cl)cc2)[nH]n1 [Compound 11] | < 30% | 
13 | COc1ccc(/C=C/c2cc(-c3ccccc3O)nn2-c2ccccc2)cc1 [Compound 12] | < 30% | 
14 | COc1ccc(/C=C/c2cc(-c3ccccc3O)nn2S(=O)(=O)c2ccc(C)cc2)cc1 [Compound 13] | < 30% | 
15 | Cc1ccc(S(=O)(=O)Oc2ccccc2-c2cc(/C=C/c3ccccc3)n(S(=O)(=O)c3ccc(C)cc3)n2)cc1 [Compound 14] | < 30% | 
16 | COc1ccc(/C=C/c2cc(-c3ccccc3OS(=O)(=O)c3ccc(C)cc3)nn2S(=O)(=O)c2ccc(C)cc2)cc1 [Compound 15] | < 30% | 
17 | O=c1cc(/C=C/c2ccccc2)oc2cc(O)ccc12 [Compound 16] | < 30% | 
18 | O=c1cc(/C=C/c2ccc(O)cc2)oc2cc(O)ccc12 [Compound 17] | < 30% | 
19 | O=c1cc(/C=C/c2ccc(O)c(O)c2)oc2ccccc12 [Compound 18] | < 30% | 
20 | O=c1cc(/C=C/c2ccc(O)c(O)c2)oc2cc(O)ccc12 [Compound 19] | < 30% | 
21 | O=c1cc(/C=C/c2ccc(O)c(O)c2)oc2cccc(O)c12 [Compound 20] | < 30% | 
22 | O=c1cc(/C=C/c2ccccc2)oc2cc(O)cc(O)c12 [Compound 21] | < 50% | 
23 | O=c1cc(/C=C/c2ccc(O)cc2)oc2cc(O)cc(O)c12 [Compound 22] | < 50% | 
24 | O=c1cc(/C=C/c2ccc(O)c(O)c2)oc2cc(O)cc(O)c12 [Compound 23] |  | IC50 (rabbit mGPa [1]; [4]): 31.7 ± 2.4 µM
25 | O=c1c(O)c(/C=C/c2ccc(O)c(O)c2)oc2c(O)c(O)ccc12 [Compound 24] |  | IC50 (rabbit mGPa [1]; [6]): > 25 µM; inhibition at 25 µM (rabbit mGPa [1]; at 25 μM (highest concentration tested), mean ± SEM, read-out: GPa inhibitory activity (%)): 33.7 ± 6.5%
26 | COc1cc(OC)c2c(=O)cc(/C=C/c3ccc(O)c(O)c3)oc2c1 [Compound 25] | < 30% | 

Row | SMILES | inhibition at 50 µM (rabbit mGPa [1]; [5]) | further results
27 | COc1cc(OC)c2c(=O)cc(/C=C/c3ccc(OC)c(OC)c3)oc2c1 [Compound 26] | 42.2 ± 5.6% | 
28 | COc1ccc(/C=C/c2cc(=O)c3ccc(OC)c(OC)c3o2)cc1OC [Compound 27] | < 30% | 
29 | COc1ccc2c(=O)cc(/C=C/c3ccc(OC)c(OC)c3)oc2c1 [Compound 28] | < 30% | 
30 | COc1ccc(/C=C/c2cc(=O)c3c(OC)cccc3o2)cc1OC [Compound 29] | < 30% | 
31 | O=c1cc(/C=C/C=C/c2ccc(O)c(O)c2)oc2ccccc12 [Compound 30] | < 30% | 
32 | O=c1cc(/C=C/C=C/c2ccc(O)c(O)c2)oc2cccc(O)c12 [Compound 31] | < 30% | 
33 | O=c1cc(/C=C/C=C/c2ccc(O)c(O)c2)oc2cc(O)ccc12 [Compound 32] |  | IC50 (rabbit mGPa [1]; [4]): 16.7 ± 1.5 µM; IC50 (rabbit mGPa [2]; [7]): 16.7 ± 1.5 µM; IC50 (rabbit mGPa [2]; [8]): 13.4 ± 1.6 µM; IC50 (rabbit mGPa [2]; [9]): 10.8 ± 1.2 µM
34 | COc1cc(O)c2c(=O)cc(/C=C/C=C/c3ccc(O)c(O)c3)oc2c1 [Compound 33] |  | IC50 (rabbit mGPa [1]; [4]): 15.9 ± 1.1 µM; IC50 (rabbit mGPa [2]; [7]): 15.9 ± 1.1 µM; inhibition at 40 µM (rabbit mGPa [2]; 5 mM of glucose): 53.9 ± 2.5%; inhibition at 40 µM (rabbit mGPa [2]; 10 mM of glucose): < 30%
35 | COc1ccc2c(=O)cc(/C=C/C=C/c3ccc(O)c(O)c3)oc2c1 [Compound 34] | 51.9 ± 1.8% | 
36 | COc1ccc2c(=O)cc(/C=C/C=C/c3ccc(OC)c(OC)c3)oc2c1 [Compound 35] | 35.8 ± 4.6% | 
37 | O=c1cc(-c2ccccc2)oc2cc(O)ccc12 [Compound 36] | < 30% | 
38 | O=c1cc(-c2ccc(O)cc2)oc2cc(O)ccc12 [Compound 37] | < 30% | 
39 | O=c1cc(-c2ccc(O)c(O)c2)oc2ccccc12 [Compound 39] | < 30% | IC50 (rabbit mGPa [1]; [6]): > 50 µM
40 | O=c1cc(-c2ccc(O)c(O)c2)oc2cc(O)ccc12 [Compound 40] | < 30% | IC50 (rabbit mGPa [1]; [6]): > 50 µM
41 | O=c1cc(-c2ccc(O)c(O)c2)oc2cccc(O)c12 [Compound 41] | < 30% | IC50 (rabbit mGPa [1]; [6]): > 50 µM
42 | O=c1cc(-c2ccc(O)cc2)oc2cc(O)cc(O)c12 [Compound 42, Apigenin] | 35.7 ± 2.1% | 
43 | O=c1cc(-c2ccc(O)c(O)c2)oc2cc(O)cc(O)c12 [Compound 43, Luteolin] | < 30% | IC50 (rabbit mGPa [1]; [6]): > 50 µM
44 | O=c1c(O)c(-c2ccccc2)oc2cc(O)cc(O)c12 [Compound 44, Galangin] | < 30% | 
45 | O=c1c(O)c(-c2ccc(O)c(O)c2)oc2cc(O)cc(O)c12 [Compound 45, Quercetin] | < 30% | IC50 (rabbit mGPa [1]; [6]): > 50 µM
46 | O=c1cc(-c2ccccc2)oc2c(O)c(O)cc(O)c12 [Compound 46, Norwogonin] |  | IC50 (rabbit mGPa [1]; [4]): 13.2 ± 1.4 µM; IC50 (rabbit mGPa [2]; [7]): 13.2 ± 1.4 µM; IC50 (rabbit mGPa [2]; [8]): 8.9 ± 1 µM; IC50 (rabbit mGPa [2]; [9]): 3.7 ± 0.5 µM
47 | O=c1cc(-c2ccccc2)oc2cc(O)c(O)c(O)c12 [Compound 47, Baicalein] |  | IC50 (rabbit mGPa [3]): 11.2 ± 1.5 µM; IC50 (rabbit mGPa [1]; [4]): 23.5 ± 2.9 µM; IC50 (GPb): 10.2 ± 1.2 µM
48 | O=c1cc(-c2ccc(O)cc2)oc2cc(O)c(O)c(O)c12 [Compound 48, Scutellarein] | < 30% | IC50 (rabbit mGPa [1]; [6]): > 50 µM
49 | O=C(O)[C@H]1O[C@@H](Oc2cc3oc(-c4ccccc4)cc(=O)c3c(O)c2O)[C@H](O)[C@@H](O)[C@@H]1O [Compound 49, Baicalin] |  | IC50 (rabbit mGPa [1]; [4]): 20.5 ± 2.5 µM
50 | O=c1c(O)c(-c2ccc(O)c(O)c2)oc2cc(O)c(O)c(O)c12 [Compound 50, Quercetagetin] | < 30% | IC50 (rabbit mGPa [1]; [6]): > 50 µM
51 | COc1cc2oc(-c3ccccc3)cc(=O)c2c(O)c1O [Compound 51, Baicalein-7-methylether] |  | IC50 (rabbit mGPa [1]; [4]): 22.6 ± 0.4 µM
52 | COc1cc2oc(-c3ccccc3)cc(=O)c2c(OC)c1OC [Compound 52, Baicalein-5,6,7-trimethylether] | < 30% | 
